Source: US12186311B2, “Antiproliferative compounds and second active agents for combined use” (Celgene Corporation, priority 2019, dated 2025)

What follows are molecules tested on panel of MM cell lines (H929-1051, KMS11, KMS-12PE, L363, OPM-P10, RPMI8226) (assay: Compound 2 combination with small molecule inhibitors, 3 day Cell Titer-Glo, Highest Single Agent synergy). Conditions: six MM cell lines, 3 days, Highest Single Agent method.
Type: cell-based
Method: The combination experiments were run twice, each time with replicate data on separate plates. Compounds were pre-spotted into the appropriate wells of 384-well plates using an acoustic dispenser. All MM cell lines were cultured in an incubator at 37° C. with 5% CO2 using the indicated cell culture media containing 1× Penicillin-Streptomycin. Cells were added to the compound containing 384-well plates using a Multidrop Combi Reagent Dispenser and allowed to incubate for 3 days at 37° C. with 5% CO2. After 3 days, cells were assessed for their level of ATP content via Cell Titer-Glo measured on a luminescence detector (PerkinElmer Envision).
The Highest Single Agent (HAS) method was used to detect synergy in the dose response curve data. Combinations were analyzed from a response surface perspective.

Row | SMILES | synergy in combination with Compound 2
1 | O=C(/C=C\n1cnc(-c2cc(C(F)(F)F)cc(C(F)(F)F)c2)n1)NNc1cnccn1 [selinexor, (2Z)-3-{3-[3,5-bis(trifluoromethyl)phenyl]-1H-1,2,4-triazol-1-yl}-N′-(pyrazin-2-yl)prop-2-enehydrazide] | synergy in one, two, or three out of the six cell lines tested
2 | Cc1cnc(Nc2ccc(OCCN3CCCC3)cc2)nc1Nc1cccc(S(=O)(=O)NC(C)(C)C)c1 [fedratinib, N-tert-butyl-3-[(5-methyl-2-{4-[2-(pyrrolidin-1-yl)ethoxy]anilino}pyrimidin-4-yl)amino]benzenesulfonamide] | synergy in one, two, or three out of the six cell lines tested
3 | CO[C@H]1C[C@@H]2CC[C@@H](C)[C@@](O)(O2)C(=O)C(=O)N2CCCC[C@H]2C(=O)O[C@H]([C@H](C)C[C@@H]2CC[C@@H](OCCO)[C@H](OC)C2)CC(=O)[C@H](C)/C=C(\C)[C@@H](O)[C@@H](OC)C(=O)[C@H](C)C[C@H](C)/C=C/C=C/C=C/1C [everolimus, 40-O-(2-hydroxyethyl)-rapamycin] | synergy in combination with Compound 2 in five out of the six cell lines tested
4 | C[C@]1(O)C[C@@H](c2nc(-c3ccc4ccc(-c5ccccc5)nc4c3)c3c(N)nccn32)C1 [linsitinib, cis-3-[8-amino-1-(2-phenyl-7-quinolinyl)imidazo[1,5-a]pyrazin-3-yl]-1-methylcyclobutanol] | synergy in combination with Compound 2 in four out of the six cell lines tested
5 | C=CC(=O)N1CCC[C@@H](n2nc(-c3ccc(Oc4ccccc4)cc3)c3c(N)ncnc32)C1 [ibrutinib, 1-[(3R)-3-[4-amino-3-(4-phenoxyphenyl)-1Hpyrazolo[3,4-d]pyrimidin-1-yl]-1-piperidinyl]-2-propen-1-one] | synergy in one, two, or three out of the six cell lines tested
6 | CC(C)N(CCCNC(=O)Nc1ccc(C(C)(C)C)cc1)C[C@H]1O[C@@H](n2cc(Br)c3c(N)ncnc32)[C@H](O)[C@@H]1O [SGC0946, 5 bromo-7-[5-deoxy-5-[[3-[[[[4-(1,1-dimethylethyl)phenyl]amino]carbonyl]amino]propyl](1-methylethyl)amino]-β-D-ribofuranosyl]-7H-pyrrolo[2,3-d]pyrimidin-4-amine] | synergy in one, two, or three out of the six cell lines tested
